In patent US20160136284A1, “GLIOMA TREATMENT” (priority 2012, published 2016):
Entries after “also recorded” stand apart in the source; their conditions may differ.

Legend:
[1] = Prolonged intracranial (brainstem) carboplatin infusions in primates (Strege et al.); type: in vivo
[2] = tested on: diffuse intrinsic pontine glioma; assay: CED of carboplatin in a patient with diffuse intrinsic pontine glioma
Source text: MR imaging under general anaesthetic was undertaken to facilitate pre-operative stereotactic planning (field strength 3 T, Philips Achieva TX, Philips Healthcare, The Netherlands) one week prior to surgery. […] A left transfrontal trajectory for catheter implantation was planned (FIGS. 7a-d) facilitating the in-house manufacture of a bespoke catheter with a winged hub (FIG. 8a). The catheter was manufactured from polyether ether ketone (PEEK) with an outer diameter (OD) of 0.6 mm, which was bonded onto a fused silica cannula with a laser-cut tip (OD 0.23 mm). The catheter was designed to be implanted through a 1 mm OD carbothane guide-tube.
On the day of surgery the patient was anaesthetised and placed in a Leksell frame. A pre-operative CT angiogram was performed and co-registered with the post-contrast T1 weighted planning MRI scan to facilitate output of stereotactic co-ordinates to a Neuro|Mate® neurosurgical robot (Renishaw) (FIG. 8b). A 3 cm left frontal curvilinear scalp incision was made and the periosteum retracted. The robot was driven to the entry position on the skull, and using custom-made hand drills, a multi-featured burr hole made into which the guide tube hub would push fit. The dura was pierced and a 1 mm guide rod inserted to a point 24 mm proximal to the target within the tumour. The guide tube was then implanted on a 0.6 mm guide rod to maintain trajectory. The catheter was tunnelled out through a separate stab incision in the scalp and connected to a custom-made in-line gas and bacterial filter. The catheter was attached to an infusion pump (B Braun, Melsungen, Germany) and primed with artificial cerebrospinal fluid (Torbay Pharmaceutical Manufacturing Unit, Torbay, UK). The fused silica catheter was then implanted via the guide-tube with 3 mm of fused silica retained within the guide tube and 24 mm extending beyond the guide-tube tip, thus creating a “recessed-step” within the distal guide-tube (FIG. 8c). The winged hub of the catheter was turned 90° at the skull and secured with 5 mm titanium screws. […] The skin incision was closed in layers and the externalised catheter tubing secured in a loop on the scalp (FIG. 8d).
Whilst under general anaesthesia the child was transferred to the 3 T MRI scanner. The externalised catheter was attached to a 6 m extension line to allow infusions to be performed from a syringe driver (B Braun) outside of the scan room. Infusions of carboplatin diluted in artificial cerebrospinal fluid to a concentration of 0.09 mg/ml were commenced using the following infusion regime:
0.5 μl/min for 10 minutes, 1 μl/min for 5 minutes, 2.5 μl/min for 5 minutes, 5 μl/min for 5 minutes, 7.5 μl/min until completion.
Serial real-time T2-weighted MRI scans were performed in order to allow areas of hyperintense signal change to be used as a proxy measure for drug distribution. […] Once the Vi:Vd ratio was established the child was recovered from anaesthesia and monitored in a high dependency area until completion of the infusion. […] Infusions of carboplatin were performed on 3 consecutive days in order to maintain exposure to the cytotoxic chemotherapy for at least 72 hours.

[3] = Tissue distribution and half-life of carboplatin after CED into rat brain (LA-ICP-MS); type: in vivo
Description: Male Wistar rats (Charles River, UK) were group-housed and allowed to acclimatise prior to experimental procedures. Rats weighing 225 to 275 g were anaesthetised with an intraperitoneal dose of medetomidine (Dormitor; 0.4 mg/kg; Pfizer Animal Health, Kent, UK) and ketamine (Ketaset; 100 mg/kg; Pfizer, UK) and placed in a stereotactic frame (Stoelting Co, Wood Dale, Ill. USA). A linear incision was made between the glabella and the occiput and the skull exposed. Burr holes with a diameter of approximately 2 mm were drilled 1.0 mm anterior and 2.5 mm lateral to the bregma and cannulae were inserted to a depth of 2.5 mm below the dura. All cannulae were pre-primed with either saline or carboplatin and the desired dose prior to insertion into the brain. Every attempt was made to ensure that no air bubbles were present in the infusion cannula. Infusions of 2.5 μl of carboplatin at specific concentrations (outlined in Table 1) were conducted at a rate of 5 μl/min. Following infusion completion, the cannula was left in-situ for 10 min before being withdrawn at a rate of 1 mm/min. The wound was then closed with 5.0 Vicryl (Ethicon, Gargrave, UK) a dose of intramuscular buprenorphine was administered (Vetergesic; 0.03 mg/kg; Alstoe Animal Health, York, UK) and the anaesthetic was reversed with an intraperitoneal dose of atipamezole hydrochloride (Antisedan; 5 mg/kg; Pfizer, UK). […]
Resultant data (.csv files) was in the form of signal response for each monitored isotope (separate columns) against time; as such, ion-responses could be co-ordinated to form 2D elemental distribution maps, using the Graphis software package (Kylebank Software Ltd, Ayr, UK).
The laser ablation (LA) system was configured to perform multiple, parallel line-rastering of sections. […] Isotopes (^13C, ^57Fe, ^66Zn, ^157Gd and ^195Pt) were monitored in a time-resolved mode and selected on the basis of high-percentage abundance and minimal isobaric and polyatomic interferences. […]

[4] = Glioma tissue concentration after high-dose intravenous delivery (Whittle et al.); type: in vivo
[5] = one month after completion of infusions

N.N.O=C([O-])C1(C(=O)[O-])CCC1.[Pt+2] [carboplatin]
lowest concentration likely to lead to significant toxicity ([1]; extrapolated from Strege et al, assuming patient weight of 70 kg): 0.22 mg/mL | ratio of serum concentration, intravenous in humans vs intracranial in primates ([1]; in vivo, iv): more than 5 thousand | volume of T2 signal change on completion of final infusion ([2]; after 5 infusions, 0.09 and 0.18 mg/ml): 35.1 mL | volume of distribution (T2-weighted MRI) ([2]; after infusion of 0.52 ml, 0.09 mg/ml in artificial CSF): 2.06 mL | follow-up T2-weighted MR imaging [2, 5]: suggestive of the early stages of tumour necrosis | follow-up post-contrast T1-weighted imaging [2, 5]: tumour progression in the inferior and anterior regions of the tumour | tolerability of infusions ([2]; patient, 0.09-0.18 mg/ml, up to 10 μl/min): well tolerated; also recorded: transient worsening in neurological status | distribution in rat brain at 0 hours post-infusion ([3]; 0.03 mg/ml by CED into corpus callosum): widespread distribution | time platinum detectable by LA-ICP-MS ([3]; 0.03 mg/ml by CED into rat corpus callosum): up to 24 hours | time carboplatin remains in the brain ([3]; rat, CED): at least 24 hours | peak glioma tissue concentration as share of IC50 (meta-analysis of chemosensitivity assays) [4]: 40%
